Measured values from patent US11603349B2, “Anti-fibrotic compounds” (Certa Therapeutics Pty Ltd, priority 2017, dated 2023).
Where a name gives a salt, the structure may show the parent alone.

How the values were obtained:
[1] = system: TGF-β induced [14C]-proline incorporation in rat mesangial cells; assay: [14C]-proline incorporation assay (collagen biosynthesis); type: cell-based; conditions: inhibition of TGF-β1 (1 ng/ml) induced [14C]-proline incorporation, IRMC cells
in vitro = conditions: rat, CC50 (μM)
[2] = MTS tetrazolium reduction cell viability assay; conditions: rat, rat mesangial cells (1097/IRMC cells), TGF-β1 stimulated, CC50 (μM), vs 1% DMSO vehicle
[3] = Discrete oral pharmacokinetic studies in male Sprague Dawley rats; type: in vivo, rat; conditions: male SD rats; for change in plasma concentrations between the 75 and 350 mg/kg/day dosing groups: after the initial dose; for adverse compound related effects: 2 and 20 mg/kg single dose, 75 and 350 mg/kg daily (5 days)
Procedure: Discrete oral pharmacokinetic studies were performed for example compounds 116, 107, and 102.
116: 2 mg/kg and 20 mg/kg of 116 were administered as single doses to male Sprague Dawley (SD) rats. 75 mg/kg and 350 mg/kg of 116 were administered daily (5 days) to male Sprague Dawley (SD) rats.
107: 2 mg/kg and 20 mg/kg of 107 were administered as single doses to male Sprague Dawley (SD) rats. 75 mg/kg and 350 mg/kg of 107 were administered daily (5 days) to male Sprague Dawley (SD) rats.
102: 2 mg/kg and 20 mg/kg of 102 were administered as single doses to male Sprague Dawley (SD) rats. 75 mg/kg and 350 mg/kg of 102 were administered daily (5 days) to male Sprague Dawley (SD) rats. […] An increase in plasma concentrations were observed between the 75 and 350 mg/kg/day dosing groups.

[4] = system: rat mesangial cells (1097/IRMC cells); assay: MTS tetrazolium reduction cell viability assay; conditions: TGF-β1 stimulated IRMC cells, vs 1% DMSO vehicle
[5] = Rattus norvegicus, Mesangial cell, 44 h
[6] = daily, throughout the 5-day study

Row | SMILES | IC50 [1, 5] [µM] | CC50 at 48 h (in vitro) [µM] | CC50 at 48 h [2] [µM] | further results
1 | COc1cc(/C=C/C(=O)Nc2ccccc2C(=O)O)ccc1C1=CCNCC1 [Example 98, (E)-2-(3-(3-methoxy-4-(1,2,3,6-tetrahydropyridin-4-yl)phenyl)acrylamido)benzoic Acid] | 13.5 | 289 |  | 
2 | COc1cc(/C=C/C(=O)Nc2ccccc2C(=O)O)ccc1C1=CCN(C)CC1 [Example 99, (E)-2-(3-(3-methoxy-4-(1-methyl-1,2,3,6-tetrahydropyridin-4-yl)phenyl)acrylamido)benzoic Acid] | 34.7 | > 300 |  | 
3 | COc1cc(/C=C/C(=O)Nc2ccccc2C(=O)O)ccc1CC1CC1 [Example 102, 2-[[(E)-3-[4-(cyclopropylmethyl)-3-methoxyphenyl]prop-2-enoyl]amino]benzoic Acid] | 3.87 |  | 11.4 | coverage of IC50 relative to a 200 mg/kg/day regime of FT011 ([3]; 20 mg/kg): superior; coverage of IC50 relative to a 200 mg/kg/day regime of FT011 ([3]; 75 mg/kg): superior; coverage of IC50 relative to a 200 mg/kg/day regime of FT011 ([3]; 350 mg/kg): superior; change in plasma concentrations between the 75 and 350 mg/kg/day dosing groups [3]: An increase; trough concentrations, 75 and 350 mg/kg/day dosing group [3, 6]: consistent with dosing amounts
4 | COc1ccc(/C=C/C(=O)Nc2ccccc2C(=O)O)cc1C1=CCN(C)CC1 [Example 104, (E)-2-(3-(4-methoxy-3-(1-methyl-1,2,3,6-tetrahydropyridin-4-yl)phenyl)acrylamido)benzoic acid trifluoroacetic acid salt] | 41.4 | 281 |  | 
5 | CN1CCOc2ccc(/C=C/C(=O)Nc3ccccc3C(=O)O)cc21 [Example 107, 2-[[(E)-3-(4-methyl-2,3-dihydro-1,4-benzoxazin-6-yl)prop-2-enoyl]amino]benzoic Acid] | 14.9 |  | > 100 | coverage of IC50 relative to a 200 mg/kg/day regime of FT011 ([3]; 350 mg/kg): superior; adverse compound related effects [3]: No adverse compound related effects were observed; change in plasma concentrations between the 75 and 350 mg/kg/day dosing groups [3]: an increase; trough concentrations, 75 and 350 mg/kg/day dosing group [3, 6]: consistent with dosing amounts
6 | COc1ccc(/C=C/C(=O)Nc2ccccc2C(=O)O)c(OCCN(C)C)c1OC [Example 116, (E)-2-(3-(2-(2-(dimethylamino)ethoxy)-3,4-dimethoxyphenyl)acrylamido)benzoic Acid] |  |  | 294 | CC50 [4]: > 300 µM; coverage of IC50 relative to a 200 mg/kg/day regime of FT011 ([3]; 75 mg/kg): superior; coverage of IC50 relative to a 200 mg/kg/day regime of FT011 ([3]; 350 mg/kg): superior; adverse compound related effects [3]: No adverse compound related effects were observed; change in plasma concentrations between the 75 and 350 mg/kg/day dosing groups [3]: little to no increase; trough concentrations, 350 mg/kg/day dosing group [3, 6]: lower than expected
7 | COc1cc(/C=C/C(=O)Nc2ccc(F)cc2)ccc1C1=CCNCC1 [Example 120, (E)-N-(4-fluorophenyl)-3-(3-methoxy-4-(1,2,3,6-tetrahydropyridin-4-yl)phenyl)acrylamide] | 3.22 | 10.8 |  | 
8 | COc1cc(C2CC2C(=O)Nc2ccc(C#N)cc2)ccc1C1=CCNCC1 (stereo not drawn) [Example 121, N-(4-cyanophenyl)-2-(3-methoxy-4-(1,2,3,6-tetrahydropyridin-4-yl)phenyl)cyclopropane Carboxamide] | 3.79 | 8.47 |  | 
9 | COc1cc(/C=C/C(=O)Nc2ccc(C#N)cc2)ccc1C1=CCNCC1 [Example 139, (E)-N-(4-cyanophenyl)-3-(3-methoxy-4-(1,2,3,6-tetrahydropyridin-4-yl)phenyl)acrylamide trifluoroacetic acid salt] | 5.36 | 9.03 |  | 
10 | COc1cc(/C=C/C(=O)Nc2ccccc2-n2cnc(C)n2)ccc1C1=CCNCC1 [Example 140, (E)-3-(3-methoxy-4-(1,2,3,6-tetrahydropyridin-4-yl)phenyl)-N-(2-(3-methyl-1H-1,2,4-triazol-l-yl)phenyl)acrylamide trifluoroacetic acid salt] | 8.47 | 36.1 |  | 
11 | COc1cc(/C=C/C(=O)Nc2ccccc2F)ccc1C1=CCNCC1 [Example 141, (E)-N-(2-fluorophenyl)-3-(3-methoxy-4-(1,2,3,6-tetrahydropyridin-4-yl)phenyl)acrylamide] | 4.85 | 13.5 |  | 
12 | COc1cc(/C=C/C(=O)n2nc(O)c3ccccc32)ccc1C1=CCNCC1 [Example 142, (E)-1-(3-hydroxy-1H-indazol-1-yl)-3-(3-methoxy-4-(1,2,3,6-tetrahydropyridin-4-yl)phenyl)prop-2-en-1-one] | 31.7 | > 300 |  | 
13 | COc1cc(C2CC2C(=O)Nc2ccc(F)cc2)ccc1C1=CCNCC1 (stereo not drawn) [Example 143, N-(4-fluorophenyl)-2-(3-methoxy-4-(1,2,3,6-tetrahydropyridin-4-yl)phenyl)cyclopropane carboxamide trifluoroacetic acid salt] | 2.81 | 7.2 |  | 
14 | COc1cc(C2CC2C(=O)Nc2ccccc2-n2cnc(C)n2)ccc1C1=CCNCC1 (stereo not drawn) [Example 144, 2-(3-methoxy-4-(1,2,3,6-tetrahydropyridin-4-yl)phenyl)-N-(2-(3-methyl-1H-1,2,4-triazol-1-yl)phenyl)cyclopropanecarboxamide trifluoroacetic acid salt] | 20.9 | 81 |  | 
15 | COc1cc(C2CC2C(=O)Nc2ccccc2F)ccc1C1=CCNCC1 (stereo not drawn) [Example 145, N-(2-fluorophenyl)-2-(3-methoxy-4-(1,2,3,6-tetrahydropyridin-4-yl)phenyl)cyclopropane carboxamide trifluoroacetic acid] | 3.71 | 11.7 |  | 
16 | COc1cc(C2CC2C(=O)n2nc(O)c3ccccc32)ccc1C1=CCNCC1 (stereo not drawn) [Example 146, (3-hydroxy-1H-indazol-1-yl)(2-(3-methoxy-4-(1,2,3,6-tetrahydropyridin-4-yl)phenyl)cyclopropyl)methanone trifluoroacetic acid salt] | 19.6 | > 300 |  | 
17 | COc1ccc(C2CC2C(=O)Nc2ccccc2Cl)cc1OCc1cnn(C)c1 (stereo not drawn) [Example 157] | 12.6 |  | 45.3 | 
18 | COc1ccc(C2CC2C(=O)Nc2cccc(S(C)(=O)=O)c2)cc1OCc1cnn(C)c1 (stereo not drawn) [Example 158, 2-(4-methoxy-3-((1-methyl-1H-pyrazol-4-yl)methoxy)phenyl)-N-(3-(methylsulfonyl)phenyl)cyclopropane-1-carboxamide] | 25.9 |  | 68.8 | 
19 | COc1ccc(/C=C/C(=O)Nc2ccccc2Cl)cc1OCc1cnn(C)c1 [Example 159, (E)-N-(2-chlorophenyl)-3-(4-methoxy-3-((1-methyl-1H-pyrazol-4-yl)methoxy)phenyl)acrylamide] | 2.43 |  | > 10 | 
20 | COc1ccc(/C=C/C(=O)Nc2cccc(Cl)c2)cc1OCc1cnn(C)c1 [Example 160, (E)-N-(3-chlorophenyl)-3-(4-methoxy-3-((1-methyl-1H-pyrazol-4-yl)methoxy)phenyl)acrylamide] | 30.4 |  | > 300 | 
21 | C#CCOc1ccc(/C=C/C(=O)Nc2ccccc2C(=O)O)cc1OC [FT011, (E)-2-(3-(3-methoxy-4-(prop-2-yn-1-yloxy)phenyl)acrylamido)benzoic acid, reference compound] | 17 |  | 119 | IC50 ([1]; 44 hours): 16 µM
